From ChEMBL document CHEMBL1139762, “Novel substituted tetrahydrotriazaacenaphthylene derivatives as potent CRF1 receptor antagonists” (Bioorg Med Chem Lett, 2007)

Tests used:
[1] = Plasma clearance in Sprague-Dawley rat at 1 mg/kg, po and 0.4 mg/kg, iv; assay type: ADME, organism-based
[2] = Half life in Sprague-Dawley rat at 1 mg/kg, po and 0.4 mg/kg, iv; assay type: ADME, organism-based; details: in vivo
[3] = Oral bioavailability in Sprague-Dawley rat at 1 mg/kg; assay type: ADME, organism-based; details: in vivo
[4] = target: T1, Corticotropin-releasing factor receptor 1 (Homo sapiens, UniProt P34998); assay: Displacement of [125I]CRF from human recombinant CRF1 receptor expressed in CHO cell membrane; assay type: cell membranes
T1 sequence (P34998 whole entry): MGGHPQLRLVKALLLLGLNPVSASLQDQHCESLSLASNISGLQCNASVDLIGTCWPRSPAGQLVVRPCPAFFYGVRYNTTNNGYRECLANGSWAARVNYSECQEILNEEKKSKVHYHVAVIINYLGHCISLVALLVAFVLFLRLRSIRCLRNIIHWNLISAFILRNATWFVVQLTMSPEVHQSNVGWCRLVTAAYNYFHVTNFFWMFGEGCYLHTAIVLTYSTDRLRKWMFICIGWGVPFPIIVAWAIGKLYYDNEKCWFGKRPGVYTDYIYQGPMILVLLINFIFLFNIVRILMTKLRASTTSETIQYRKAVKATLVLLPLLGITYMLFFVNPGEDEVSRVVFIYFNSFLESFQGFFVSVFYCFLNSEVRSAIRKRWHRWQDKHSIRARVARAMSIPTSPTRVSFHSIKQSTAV

[5] = Volume of distribution at steady state in Sprague-Dawley rat at 1 mg/kg, po and 0.4 mg/kg, iv; assay type: ADME, organism-based; details: in vivo, read-out: Vdss
[6] = AUC in Sprague-Dawley rat at 1 mg/kg, po and 0.4 mg/kg, iv; assay type: ADME, organism-based; details: plasma

Row | Structure (SMILES) | clearance [1] [mL/min/kg] | half-life [2] [h] | bioavailability [3] [%] | IC50 [4] [µM] | Vd [5] [L/kg] | AUC [6] [ng·h/mL]
1 | CCC(CC)n1cc2c3c(nc(C)cc31)N(c1ccc(C(F)(F)F)cc1C(F)(F)F)CC2 | 21 | 7.6 | 28 | 0.126 | 6.8 | 222
2 | CCC(COC)n1cc2c3c(nc(C)cc31)N(c1ccc(OC)cc1C)CC2 (stereo not drawn) |  |  |  | 0.158 |  | 
3 | CCC(CC)n1cc2c3c(nc(C)cc31)N(c1ccc(OC)cc1)CC2 |  |  |  | 0.0631 |  | 
4 | CCCC(CCC)n1cc2c3c(nc(C)cc31)N(c1ccc(C#N)cc1C)CC2 | 54 | 6.7 | < 5 | 0.00398 | 17 | < 15
5 | CCCC(CCC)n1cc2c3c(nc(C)cc31)N(c1ccc(OC)c(F)c1)CC2 | 47 | 8.6 | 37 | 0.0398 | 24 | 131
6 | CCCC(CCC)n1cc2c3c(nc(C)cc31)N(c1ccc(OC)cc1C)CC2 |  |  |  | 0.126 |  | 
7 | CCCC(CCC)N1CCC2CN(c3ccc(Cl)cc3Cl)c3nc(C)nc1c32 (stereo not drawn) |  |  |  | 0.0316 |  | 
8 | CCC(CC)n1cc2c3c(nc(C)cc31)N(c1ccc(C#N)cc1C)CC2 |  |  |  | 0.0126 |  | 
9 | CCCC(CCC)n1cc2c3c(nc(C)cc31)N(c1ccc(C(F)(F)F)cc1C(F)(F)F)CC2 | 8 | 5.3 | 71 | 0.1 | 2.5 | 1480
10 | CCC(CC)n1cc2c3c(nc(C)cc31)N(c1ccc(OC)c(F)c1)CC2 |  |  |  | 0.0501 |  | 
11 | CCC(CC)n1cc2c3c(nc(C)cc31)N(c1ccc(OC(F)(F)F)cc1C)CC2 |  |  |  | 0.0794 |  | 
12 | CCC(COC)n1cc2c3c(nc(C)cc31)N(c1ccc(C#N)cc1C)CC2 (stereo not drawn) |  |  |  | 0.0398 |  | 
13 | CCCC(CCC)n1cc2c3c(nc(C)nc31)N(c1ccc(C#N)cc1C)CC2 |  |  |  | 0.0501 |  | 
14 | CCCCN(CC)c1nc(C)nc2c1c(C)cn2-c1c(C)cc(C)cc1C [CP-154526] |  |  |  | 0.0158 |  | 
15 | CCC(CC)n1cc2c3c(nc(C)nc31)N(c1ccc(C(F)(F)F)cc1C(F)(F)F)CC2 |  |  |  | 0.0251 |  | 
16 | CCC(CC)n1cc2c3c(nc(C)cc31)N(c1ccc(OC)cc1C)CC2 |  |  |  | 0.0126 |  | 
17 | CCCC(CCC)n1cc2c3c(nc(C)nc31)N(c1ccc(C(F)(F)F)cc1C(F)(F)F)CC2 |  |  |  | 0.0158 |  | 
18 | COCC(COC)Nc1nc(C)nc2c(-c3ccc(Cl)cc3Cl)c(C)nn12 |  |  |  | 0.0398 |  | 
